IC50 and EC50 data for 4 compounds are collected here from patent US10981893B2, “Therapeutic inhibitory compounds” (Attune Pharmaceuticals, Inc., priority 2015, dated 2021).

The structures appear in SMILES notation.

The target in one assay is human Plasma Kallikrein (Homo sapiens (Human), UniProt P03952). As to the kind of experiment: In vitro enzyme inhibition of human plasma kallikrein (Pro-Phe-Arg-AMC cleavage). Type of assay: biochemical. Particulars: PFR-AMC substrate, 37° C., read-out: hPK IC50. As to the method: The ability of the compounds disclosed herein to inhibit human plasma kallikrein activity was quantified according to the procedures below.
A 10 mM solution of the test compound was made in DMSO. This solution was serially diluted 1:5 in DMSO to yield 2000, 400, 80, 16, 3.2, 0.64, 0.128, 0.0256 and 0.00512 μM compound test solutions. A control tube containing only DMSO is included. 16 μL of each compound test solution was combined with 384 μL of assay buffer (50 mM Tris-HCl pH 7.5, 150 mM NaCl, 0.01% Triton X-100) to yield a “4× test compound buffer stock”.
Separately, a 40 nM solution of human Plasma Kallikrein (Abcam) and a 93.6 μM solution Pro-Phe-Arg-AMC (Bachem) were made using assay buffer. These solutions are hereby refereed to as 4×hPK and 2×PFR-AMC, respectively.
60 μL of each 4× test compound buffer stock was combined with 60 μL of 4× hPK to yield 120 μL of “2× test compound buffer stock/2×hPK”. 50 μL was removed from this mixture and placed into duplicate wells on a Microfluor 1 Black U-bottom microtiter plate (Thermo Scientific). This plate was incubated for 5 minutes at 37° C. To each well, 50 μL of pre-warmed 2×PFR-AMC was added to start the enzymatic reaction. Cleavage of PFR-AMC was monitored in a Biotek Synergy H4 reader set at 37° C. Readings are taken every 43 seconds for 1 hour. The highest mean velocity over 20 reads (˜15 minutes) is used to calculate the IC50. The IC50 is calculated using the Gen5 (Biotek Instruments).
The ability of the compounds in Table 1 to inhibit human plasma kallikrein activity was determined and the data is shown in Table 3.

The target in assay [1] is kallikrein in human plasma (Homo sapiens (Human), UniProt P03952). As to the kind of experiment: In vitro cellular assay / contact assay: kallikrein activity in ellagic acid-activated human plasma (Z-FR-2-AMC substrate). As to conditions: human plasma activated with ellagic acid, 37° C. It counts as biochemical. The method, then:
The ability of the compounds disclosed herein to inhibit cellular kallikrein activity was quantified and the respective EC50 value was determined.
Plasma kallikrein inhibitor C1NH (Athens Research & Technology, Cat #16-16-031509); Ellagic acid (Sigma, E2250); Substrate Z—FR-2-AMC (GL Biochem, Cat #55352); Nunc™ 96-Well Polypropylene MicroWell™ Plates (Nunc, Cat #267342)
All dilutions were prepared in an assay buffer comprising 50 mM Tris-HCl pH 7.2, 150 mM NaCl, and 0.01% Triton X-100.
Four fold serial dilutions were prepared from a 107.53 μM plasma kallikrein inhibitor C1NH stock solution, to yield ten solutions with concentrations between 20 μM and […]. Similarly, four fold serial dilutions were prepared from 10 mM stock solutions of various test compounds, to yield ten solutions with concentrations between 4 mM and 0.015 μM. The ten solutions of the test compounds, prepared by serial dilution, were further diluted 50-fold in the assay buffer.
Human plasma is thawed on ice and centrifuged for 15 min at 4° C. to remove platelets. A 1 mM stock solution of ellagic acid is diluted to 8 μM and mixed with human plasma, after removing platelets, at a ratio of 1:0.8. The mixture of human plasma and ellagic acid was further diluted 32-fold in the assay buffer, to yield the final mixture for use in the inhibition assay.
A 22.5 μL volume of the final mixture of human plasma and ellagic acid was added to a 96-well microwell plate and the plate was incubated for 15 min at 37° C.
The test compounds at various concentrations, also prepared by serial dilutions as described above, are added to the test wells. The volume of test compound added to each test well was 12.5 μL, to yield final concentrations of 20 μM, 5 μM, 1.25 μM, 312.5 nM, 78.125 nM, 19.531 nM, 4.883 nM, 1.221 nM, 0.305 nM, and 0.076 nM. Each test compound concentration was tested in duplicates.
In addition to the inhibitor control and test wells, the 96 well assay plate includes positive control wells which contained the mixture of human plasma and ellagic acid without C1NH inhibitor or test compounds, and background wells which contained neither the mixture of human plasma and ellagic acid nor the test compounds. The total volume of liquid in positive control and background wells was brought up to 35 μL, using the assay buffer.
The assay plate containing C1NH inhibitors and test compounds mixed with human plasma and ellagic acid and appropriate controls was incubated at 37° C. for 5 min. A 10 mM stock solution of substrate Z—FR-2-AMC was diluted to 133.2 μM in the assay buffer, and 15 μL of the diluted substrate was added to each well, to yield a final substrate concentration of 40 μM in each well. […]
The enzyme reaction was quantified by immediate kinetic reading of the assay plate using excitation/emission wavelengths of 330 nm/440 nm respectively. Fluorescence intensity was recorded for 60 min, using a time interval of 43 sec.
The inhibition activity of the test compounds were evaluated using the IC50 values, calculated according to the dose-response curve of the test compounds, fitted using the “log(inhibitor)-response(variable slope)” equation in GraphPadPrism software (GraphPad Software, Inc.).
The percentage inhibition was calculated using the following equation:
[formula] where, Mean(BG) is the average value of the fluorescence intensity of the background wells and Mean(PC) is the average value of the fluorescence intensity of the positive control wells. […]

Chain of kallikrein in human plasma (P03952 391-638 limits assumed): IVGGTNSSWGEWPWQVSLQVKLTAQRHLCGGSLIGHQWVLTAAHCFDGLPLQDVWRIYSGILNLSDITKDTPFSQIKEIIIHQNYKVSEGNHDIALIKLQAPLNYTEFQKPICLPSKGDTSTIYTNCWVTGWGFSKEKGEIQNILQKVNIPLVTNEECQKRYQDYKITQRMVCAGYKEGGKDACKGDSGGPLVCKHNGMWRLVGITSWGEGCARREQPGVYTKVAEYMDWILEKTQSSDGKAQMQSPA
Chain of kallikrein in human plasma (P03952 20-390 partner limits assumed): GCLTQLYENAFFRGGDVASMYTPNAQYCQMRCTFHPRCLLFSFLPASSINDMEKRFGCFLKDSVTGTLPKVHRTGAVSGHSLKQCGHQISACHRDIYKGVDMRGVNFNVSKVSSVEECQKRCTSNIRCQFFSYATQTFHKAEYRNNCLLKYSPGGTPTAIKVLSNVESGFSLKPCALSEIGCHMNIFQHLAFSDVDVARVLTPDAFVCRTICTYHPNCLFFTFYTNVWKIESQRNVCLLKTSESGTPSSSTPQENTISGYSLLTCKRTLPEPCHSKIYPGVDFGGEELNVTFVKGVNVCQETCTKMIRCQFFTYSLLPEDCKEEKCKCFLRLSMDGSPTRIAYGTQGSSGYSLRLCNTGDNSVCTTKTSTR
Chain of human Plasma Kallikrein (P03952 391-638 limits assumed): as the sequence (P03952 391-638 limits assumed) above
Chain of human Plasma Kallikrein (P03952 20-390 partner limits assumed): as the sequence (P03952 20-390 partner limits assumed) above

The term IC50 denotes the concentration needed to halve the response being measured. One may read the EC50 as the concentration at which the effect is half-maximal. Lower therefore signals an effect from little substance. Regarding `Cc1cc(N)nc(C)c1CNC(=O)c1cncc(Cc2ccc3ncc(Cl)cc3c2)c1` [Example 22, N-((6-amino-2,4-dimethylpyridin-3-yl)methyl)-5-((3-chloroquinolin-6-yl)methyl)nicotinamide], at human Plasma Kallikrein, the IC50 was ≤ 100 nM. For the same compound, the EC50 in assay [1] is ≤ 100 nM.

Turning to `CS(=O)(=O)c1cc(Cc2cc(C(=O)NCc3cnc4[nH]cc(Cl)c4c3)ccn2)ccc1Cn1ccccc1=O` [Example 29], on human Plasma Kallikrein, the IC50 was ≤ 100 nM. Moreover, the EC50 in assay [1] is ≤ 100 nM.

As for `Cc1nc(N)ccc1CNC(=O)c1ccnc(Cc2ccc(Cn3ccccc3=O)c(S(C)(=O)=O)c2)c1` [Example 23, N-((6-amino-2-methylpyridin-3-yl)methyl)-2-(3-(methylsulfonyl)-4-((2-oxopyridin-1(2H)-yl)methyl)benzyl)isonicotinamide], the IC50 on human Plasma Kallikrein was ≤ 100 nM. In assay [1], the EC50 is ≤ 100 nM.

In the case of `Cc1cc(N)nc(C)c1CNC(=O)c1ccc(=O)n(Cc2ccc3ncc(Cl)cc3c2)c1` [Example 21, N-((6-amino-2,4-dimethylpyridin-3-yl)methyl)-1-((3-chloroquinolin-6-yl)methyl)-6-oxo-1,6-dihydropyridine-3-carboxamide], the IC50 at human Plasma Kallikrein was ≤ 100 nM. Besides, the concentration for a half-maximal effect (EC50) in assay [1] was ≤ 100 nM.
